Assay results as given in publication PMC9929129, “Towards Translation of PqsR Inverse Agonists: From In Vitro Efficacy Optimization to In Vivo Proof‐of‐Principle” (Advanced Science, 2023).

Key:
[1] = In vivo PK study, intratracheal (IT) and intravenous (IV); details: for Tmax / CL/F / Vd/F / half-life: male, CD1, mouse; for Cl/F_obs / Vz/F_obs: […] IV
Method: The enzymatic activity of the MLM
First, a calibration curve was prepared by […]
lavage fluid (BALF). Caffeine was used as
The in live part for the IV and IT PK studies were performed at CRO Saretius (UK). Groups of male CD1 […]
light/dark cycle with free access to food and water. Temperature and humidity were controlled according to U.K. HO regulations. On the day of the study, mice were briefly anesthetized with isoflurane before suspending the mouse by its upper incisors on a board held at an angle of approx.
45 degrees. Mice were then dosed intratracheally with the compound (24 or Tob) at the designated does formulated in ethanol/tyloxapol/glycerol/phosphate-buffered saline (PBS) [10:1:5:84] in a 1 mL/kg dosing volume up to a maximum of 30 µL per mouse. A laryngoscope was used to facilitate dosing. Animals were allowed to recover before replacing into their home cages. Terminal blood samples were then taken from groups of 3 mice at each of eight time points post-dose by cardiac puncture under CO2. Blood samples were placed in tubes on ice containing EDTA anticoagulant. After gentle mixing, samples were centrifuged (10,000 rpm x 3 min) and two 50 μL aliquots taken into fresh tubes that were immediately frozen on dry ice. Following blood sample collection, tracheas were exposed and a small incision made. An 18 Gauge plastic tube was then inserted through the incision into the trachea and tied in place. Aliquots of 0.8 mL of sterile saline were then infused into and then withdrawn from the lungs and the collected bronchoalveolar lavage (BALF) sample placed into a tube. This process was repeated two more times, and the samples from each mouse pooled. […]
frozen by immersion in liquid nitrogen.

5-HT transporter (h) = molecular target: T1, 5-HT transporter (h) (Homo sapiens, UniProt P31645); assay: Cerep panel binding assay; details: antagonist radioligand
T1 construct: purchased Eurofins Pharma Discovery (Cerep) SafetyScreen44 Panel, ITEM P270
Method: (§1) 1.4 Safety Pharmacology of Compound 24
(§2) 1.4.1 Cerep panel (Eurofins)
(§3) Compound 24 was further profiled for its off-target interactions against a panel of 44 targets. The
(§4) screening was done by Eurofins Pharma Discovery within the SafetyScreen44 Panel (Cerep, ITEM
(§5) P270). In all assays binding/functional inhibition was determined at 10 µM.
(§6) Table S6. […]

5-HT1A (h) = molecular target: T2, 5-HT1A (h) (Homo sapiens, UniProt P08908); assay: Cerep panel binding assay; details: agonist radioligand
T2 construct: purchased Eurofins Pharma Discovery (Cerep) SafetyScreen44 Panel, ITEM P270
Method: as §1, §2, §3, §4, §5, §6

5-HT1B (h) = molecular target: T3, 5-HT1B (h) (Homo sapiens, UniProt P28222); assay: Cerep panel binding assay; details: antagonist radioligand
T3 construct: Eurofins Pharma Discovery (CRO that ran the assay) SafetyScreen44 Panel (Cerep, ITEM P270)
Method: as §1, §2, §3, §4, §5, §6

5-HT2A (h) = molecular target: T4, 5-HT2A (h) (Homo sapiens, UniProt P28223); assay: Cerep panel binding assay; details: agonist radioligand
T4 construct: Eurofins Pharma Discovery (CRO that ran the assay) SafetyScreen44 Panel (Cerep, ITEM P270)
Method: as §1, §2, §3, §4, §5, §6

5-HT2B (h) = molecular target: T5, 5-HT2B (h) (Homo sapiens, UniProt P41595); assay: Cerep panel binding assay; details: agonist radioligand
T5 construct: purchased Eurofins Pharma Discovery (Cerep) SafetyScreen44 Panel, ITEM P270
Method: as §1, §2, §3, §4, §5, §6

5-HT3 (h) = molecular target: T6, 5-HT3 (h) (Homo sapiens, UniProt P46098); assay: Cerep panel binding assay; details: antagonist radioligand
T6 construct: purchased Eurofins Pharma Discovery (Cerep) SafetyScreen44 Panel, ITEM P270
Method: as §1, §2, §3, §4, §5, §6

A2A (h) = molecular target: T7, A2A (h) (Homo sapiens, UniProt P29274); assay: Cerep panel binding assay; details: 10 µM, agonist radioligand
T7 construct: Eurofins Pharma Discovery (CRO that ran the assay) SafetyScreen44 Panel (Cerep, ITEM P270)
Method: as §1, §2, §3, §4, §5, §6

AR (h) = molecular target: T8, AR (h) (Homo sapiens, UniProt P10275, T878A); assay: Cerep panel binding assay; details: agonist radioligand
T8 construct: purchased Eurofins Pharma Discovery (Cerep) SafetyScreen44 Panel, ITEM P270
Method: as §1, §2, §3, §4, §5, §6

CB1 (h) = molecular target: T9, CB1 (h) (Homo sapiens, UniProt P21554); assay: Cerep panel binding assay; details: agonist radioligand
T9 construct: purchased Eurofins Pharma Discovery (Cerep) SafetyScreen44 Panel, ITEM P270
Method: as §1, §2, §3, §4, §5, §6

CB2 (h) = molecular target: T10, CB2 (h) (Homo sapiens, UniProt P34972); assay: Cerep panel binding assay; details: agonist radioligand
T10 construct: purchased Eurofins Pharma Discovery (Cerep) SafetyScreen44 Panel, ITEM P270
Method: as §1, §2, §3, §4, §5, §6

D1 (h) = molecular target: T11, D1 (h) (Homo sapiens, UniProt P21728); assay: Cerep panel binding assay; details: antagonist radioligand
T11 construct: purchased Eurofins Pharma Discovery (Cerep) SafetyScreen44 Panel, ITEM P270
Method: as §1, §2, §3, §4, §5, §6

D2S (h) = molecular target: T12, D2S (h) (Homo sapiens, UniProt P14416); assay: Cerep panel binding assay; details: agonist radioligand
T12 construct: Eurofins Pharma Discovery (CRO that ran the assay) SafetyScreen44 Panel (Cerep, ITEM P270)
Method: as §1, §2, §3, §4, §5, §6

ETA (h) = molecular target: T13, ETA (h) (Homo sapiens, UniProt P25101); assay: Cerep panel binding assay; details: agonist radioligand
T13 construct: Eurofins Pharma Discovery (CRO that ran the assay) SafetyScreen44 Panel (Cerep, ITEM P270)
Method: as §1, §2, §3, §4, §5, §6

GR (h) = molecular target: T14, GR (h) (Homo sapiens, UniProt P04150); assay: Cerep panel binding assay; details: agonist radioligand
T14 construct: purchased Eurofins Pharma Discovery (Cerep) SafetyScreen44 Panel, ITEM P270
Method: as §1, §2, §3, §4, §5, §6

H1 (h) = molecular target: T15, H1 (h) (Homo sapiens, UniProt P35367); assay: Cerep panel binding assay; details: antagonist radioligand
T15 construct: purchased Eurofins Pharma Discovery (Cerep) SafetyScreen44 Panel, ITEM P270
Method: as §1, §2, §3, §4, §5, §6

H2 (h) = molecular target: T16, H2 (h) (Homo sapiens, UniProt P25021); assay: Cerep panel binding assay; details: antagonist radioligand
T16 construct: Eurofins Pharma Discovery (CRO that ran the assay) SafetyScreen44 Panel (Cerep, ITEM P270)
Method: as §1, §2, §3, §4, §5, §6

KV channel = assay: Cerep panel binding assay; details: 10 µM, antagonist radioligand
Method: as §1, §2, §3, §4, §5, §6

M1 (h) = molecular target: T17, M1 (h) (Homo sapiens, UniProt P11229); assay: Cerep panel binding assay; details: antagonist radioligand
T17 construct: Eurofins Pharma Discovery (CRO that ran the assay) SafetyScreen44 Panel (Cerep, ITEM P270)
Method: as §1, §2, §3, §4, §5, §6

M2 (h) = molecular target: T18, M2 (h) (Homo sapiens, UniProt P08172); assay: Cerep panel binding assay; details: antagonist radioligand
T18 construct: Eurofins Pharma Discovery (CRO that ran the assay) SafetyScreen44 Panel (Cerep, ITEM P270)
Method: as §1, §2, §3, §4, §5, §6

M3 (h) = molecular target: T19, M3 (h) (Homo sapiens, UniProt P20309); assay: Cerep panel binding assay; details: antagonist radioligand
T19 construct: Eurofins Pharma Discovery (CRO that ran the assay) SafetyScreen44 Panel (Cerep, ITEM P270)
Method: as §1, §2, §3, §4, §5, §6

MAO-A = molecular target: T20, MAO-A (Rattus norvegicus, UniProt P21396); assay: Cerep panel binding assay; details: antagonist radioligand
T20 construct: purchased Eurofins Pharma Discovery (Cerep) SafetyScreen44 Panel, ITEM P270
Method: as §1, §2, §3, §4, §5, §6

NMDA = assay: Cerep panel binding assay; details: 10 µM, antagonist radioligand
Method: as §1, §2, §3, §4, §5, §6

alpha1A (h) = molecular target: T21, alpha1A (h) (Homo sapiens, UniProt P35348); assay: Cerep panel binding assay; details: antagonist radioligand
T21 construct: purchased Eurofins Pharma Discovery (Cerep) SafetyScreen44 Panel, ITEM P270
Method: as §1, §2, §3, §4, §5, §6

alpha2A (h) = molecular target: T22, alpha2A (h) (Homo sapiens, UniProt P08913); assay: Cerep panel binding assay; details: antagonist radioligand
T22 construct: purchased Eurofins Pharma Discovery (Cerep) SafetyScreen44 Panel, ITEM P270
Method: as §1, §2, §3, §4, §5, §6

beta1 (h) = molecular target: T23, beta1 (h) (Homo sapiens, UniProt P08588); assay: Cerep panel binding assay; details: agonist radioligand
T23 construct: purchased Eurofins Pharma Discovery (Cerep) SafetyScreen44 Panel, ITEM P270
Method: as §1, §2, §3, §4, §5, §6

beta2 (h) = molecular target: T24, beta2 (h) (Homo sapiens, UniProt P07550); assay: Cerep panel binding assay; details: antagonist radioligand
T24 construct: purchased Eurofins Pharma Discovery (Cerep) SafetyScreen44 Panel, ITEM P270
Method: as §1, §2, §3, §4, §5, §6

delta (DOP) (h) = molecular target: T25, delta (DOP) (h) (Homo sapiens, UniProt P41143); assay: Cerep panel binding assay; details: agonist radioligand
T25 construct: purchased Eurofins Pharma Discovery (Cerep) SafetyScreen44 Panel, ITEM P270
Method: as §1, §2, §3, §4, §5, §6

dopamine transporter (h) = molecular target: T26, dopamine transporter (h) (Homo sapiens, UniProt Q01959); assay: Cerep panel binding assay; details: antagonist radioligand
T26 construct: purchased Eurofins Pharma Discovery (Cerep) SafetyScreen44 Panel, ITEM P270
Method: as §1, §2, §3, §4, §5, §6

kappa (h) (KOP) = molecular target: T27, kappa (h) (KOP) (Homo sapiens, UniProt P41145); assay: Cerep panel binding assay; details: agonist radioligand
T27 construct: purchased Eurofins Pharma Discovery (Cerep) SafetyScreen44 Panel, ITEM P270
Method: as §1, §2, §3, §4, §5, §6

mu (MOP) (h) = molecular target: T28, mu (MOP) (h) (Homo sapiens, UniProt P35372); assay: Cerep panel binding assay; details: agonist radioligand
T28 construct: purchased Eurofins Pharma Discovery (Cerep) SafetyScreen44 Panel, ITEM P270
Method: as §1, §2, §3, §4, §5, §6

[2] = epithelial lining fluid, iv, ELF Tmax

T25 sequence (P41143 whole entry): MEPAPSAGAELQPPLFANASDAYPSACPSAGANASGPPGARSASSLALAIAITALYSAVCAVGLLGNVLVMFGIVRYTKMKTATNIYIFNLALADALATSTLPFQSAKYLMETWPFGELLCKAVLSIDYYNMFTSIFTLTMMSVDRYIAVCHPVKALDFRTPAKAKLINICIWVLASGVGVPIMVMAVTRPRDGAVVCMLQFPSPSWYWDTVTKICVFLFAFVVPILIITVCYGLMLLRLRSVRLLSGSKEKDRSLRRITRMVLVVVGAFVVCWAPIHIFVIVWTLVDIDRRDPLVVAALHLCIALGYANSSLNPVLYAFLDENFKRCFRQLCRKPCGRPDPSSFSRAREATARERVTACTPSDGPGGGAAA
T22 sequence (P08913 whole entry): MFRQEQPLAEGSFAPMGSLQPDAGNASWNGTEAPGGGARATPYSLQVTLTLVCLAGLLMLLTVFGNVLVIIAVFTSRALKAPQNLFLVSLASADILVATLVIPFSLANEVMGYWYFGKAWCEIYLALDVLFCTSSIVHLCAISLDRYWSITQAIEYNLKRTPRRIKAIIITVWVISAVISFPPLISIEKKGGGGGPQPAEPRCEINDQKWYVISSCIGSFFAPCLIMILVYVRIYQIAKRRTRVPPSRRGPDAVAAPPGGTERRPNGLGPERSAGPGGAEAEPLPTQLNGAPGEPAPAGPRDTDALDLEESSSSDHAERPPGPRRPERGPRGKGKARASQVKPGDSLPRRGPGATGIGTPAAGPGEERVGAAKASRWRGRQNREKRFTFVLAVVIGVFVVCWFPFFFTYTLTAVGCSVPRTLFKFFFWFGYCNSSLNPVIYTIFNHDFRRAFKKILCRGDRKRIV
T24 sequence (P07550 whole entry): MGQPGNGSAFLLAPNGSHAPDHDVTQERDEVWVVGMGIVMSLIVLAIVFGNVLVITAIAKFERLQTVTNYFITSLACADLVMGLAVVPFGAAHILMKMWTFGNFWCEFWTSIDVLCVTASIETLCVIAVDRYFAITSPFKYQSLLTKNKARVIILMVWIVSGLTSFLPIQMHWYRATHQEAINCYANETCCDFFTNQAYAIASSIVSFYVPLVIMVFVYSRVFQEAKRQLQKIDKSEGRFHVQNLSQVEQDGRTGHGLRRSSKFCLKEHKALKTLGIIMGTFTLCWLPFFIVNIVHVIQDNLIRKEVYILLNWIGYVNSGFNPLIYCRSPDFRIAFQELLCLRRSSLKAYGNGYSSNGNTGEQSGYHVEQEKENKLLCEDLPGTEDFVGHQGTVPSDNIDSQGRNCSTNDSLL
T18 sequence (P08172 whole entry): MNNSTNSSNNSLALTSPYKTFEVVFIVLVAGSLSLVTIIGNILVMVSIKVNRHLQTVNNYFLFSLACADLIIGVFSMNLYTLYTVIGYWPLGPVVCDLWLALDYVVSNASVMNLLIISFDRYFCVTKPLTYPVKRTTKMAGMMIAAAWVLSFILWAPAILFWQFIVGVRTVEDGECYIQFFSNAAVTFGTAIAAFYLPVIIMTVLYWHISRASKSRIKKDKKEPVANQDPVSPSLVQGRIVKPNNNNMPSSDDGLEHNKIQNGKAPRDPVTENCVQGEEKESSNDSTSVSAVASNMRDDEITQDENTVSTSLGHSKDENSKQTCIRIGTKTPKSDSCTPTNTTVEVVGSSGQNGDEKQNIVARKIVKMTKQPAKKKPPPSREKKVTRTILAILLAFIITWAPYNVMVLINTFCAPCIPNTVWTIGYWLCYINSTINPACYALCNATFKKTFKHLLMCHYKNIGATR
T7 sequence (P29274 whole entry): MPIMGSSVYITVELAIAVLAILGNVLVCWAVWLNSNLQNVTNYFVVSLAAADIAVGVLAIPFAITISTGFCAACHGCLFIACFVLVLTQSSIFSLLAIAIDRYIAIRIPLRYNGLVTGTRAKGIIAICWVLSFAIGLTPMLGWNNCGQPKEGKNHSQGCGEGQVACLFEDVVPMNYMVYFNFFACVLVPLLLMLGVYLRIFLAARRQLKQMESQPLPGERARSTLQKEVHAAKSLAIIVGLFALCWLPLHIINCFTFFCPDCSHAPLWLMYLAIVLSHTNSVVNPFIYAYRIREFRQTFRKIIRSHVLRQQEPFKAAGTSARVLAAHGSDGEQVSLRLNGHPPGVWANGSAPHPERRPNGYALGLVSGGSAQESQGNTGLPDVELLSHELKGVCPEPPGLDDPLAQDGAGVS
T5 sequence (P41595 whole entry): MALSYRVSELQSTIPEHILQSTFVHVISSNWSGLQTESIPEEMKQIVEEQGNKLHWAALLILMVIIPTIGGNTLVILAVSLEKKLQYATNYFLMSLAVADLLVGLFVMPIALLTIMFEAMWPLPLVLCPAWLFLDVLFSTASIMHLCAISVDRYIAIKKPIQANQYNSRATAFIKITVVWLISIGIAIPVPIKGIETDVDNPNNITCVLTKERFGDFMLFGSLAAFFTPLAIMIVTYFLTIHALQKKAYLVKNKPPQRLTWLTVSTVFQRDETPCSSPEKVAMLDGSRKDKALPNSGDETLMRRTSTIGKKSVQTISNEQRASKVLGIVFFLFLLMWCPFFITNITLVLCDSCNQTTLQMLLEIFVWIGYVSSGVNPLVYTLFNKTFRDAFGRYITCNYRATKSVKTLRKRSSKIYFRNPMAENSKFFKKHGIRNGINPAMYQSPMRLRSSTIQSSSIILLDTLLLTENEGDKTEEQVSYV
T26 sequence (Q01959 whole entry): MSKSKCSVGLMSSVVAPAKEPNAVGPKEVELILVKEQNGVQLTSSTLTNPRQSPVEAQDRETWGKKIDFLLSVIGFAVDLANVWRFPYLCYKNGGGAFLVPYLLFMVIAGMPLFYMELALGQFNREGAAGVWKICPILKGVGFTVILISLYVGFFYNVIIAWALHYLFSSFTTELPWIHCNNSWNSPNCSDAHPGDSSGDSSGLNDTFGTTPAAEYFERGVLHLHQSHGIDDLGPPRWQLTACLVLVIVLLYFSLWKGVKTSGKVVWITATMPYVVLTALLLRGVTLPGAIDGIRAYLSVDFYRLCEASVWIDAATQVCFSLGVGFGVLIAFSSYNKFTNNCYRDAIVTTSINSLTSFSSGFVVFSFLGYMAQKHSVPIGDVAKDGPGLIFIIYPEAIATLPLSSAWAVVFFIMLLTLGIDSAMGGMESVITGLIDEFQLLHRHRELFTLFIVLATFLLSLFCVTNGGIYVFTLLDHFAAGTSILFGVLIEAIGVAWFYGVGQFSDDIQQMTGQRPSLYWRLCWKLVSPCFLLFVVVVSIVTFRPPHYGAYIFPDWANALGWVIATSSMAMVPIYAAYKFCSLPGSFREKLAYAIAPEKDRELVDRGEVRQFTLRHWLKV
T11 sequence (P21728 whole entry): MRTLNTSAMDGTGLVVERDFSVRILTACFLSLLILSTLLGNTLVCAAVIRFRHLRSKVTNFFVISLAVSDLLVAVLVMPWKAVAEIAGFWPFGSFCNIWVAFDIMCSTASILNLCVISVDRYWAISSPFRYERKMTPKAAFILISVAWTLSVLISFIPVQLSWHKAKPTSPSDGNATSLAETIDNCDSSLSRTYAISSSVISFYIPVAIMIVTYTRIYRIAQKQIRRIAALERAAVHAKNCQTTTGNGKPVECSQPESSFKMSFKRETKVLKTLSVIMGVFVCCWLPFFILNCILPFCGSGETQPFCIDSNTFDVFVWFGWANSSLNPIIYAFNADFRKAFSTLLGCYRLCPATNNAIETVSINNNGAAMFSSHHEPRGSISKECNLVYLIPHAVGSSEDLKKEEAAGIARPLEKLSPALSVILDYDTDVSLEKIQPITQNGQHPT
T4 sequence (P28223 whole entry): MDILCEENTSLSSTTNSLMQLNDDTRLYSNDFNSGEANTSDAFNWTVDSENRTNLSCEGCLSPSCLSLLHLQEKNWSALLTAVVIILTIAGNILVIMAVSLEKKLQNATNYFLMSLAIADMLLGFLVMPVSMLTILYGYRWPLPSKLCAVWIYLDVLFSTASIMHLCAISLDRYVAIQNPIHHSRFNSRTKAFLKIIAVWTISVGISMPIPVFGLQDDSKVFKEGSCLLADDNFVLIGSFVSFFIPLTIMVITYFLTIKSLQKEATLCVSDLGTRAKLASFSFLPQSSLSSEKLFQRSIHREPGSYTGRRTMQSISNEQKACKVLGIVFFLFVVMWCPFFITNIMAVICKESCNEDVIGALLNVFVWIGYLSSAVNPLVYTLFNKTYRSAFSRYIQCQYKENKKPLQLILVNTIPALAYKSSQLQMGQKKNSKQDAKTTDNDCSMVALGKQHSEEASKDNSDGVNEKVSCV
T14 sequence (P04150 whole entry): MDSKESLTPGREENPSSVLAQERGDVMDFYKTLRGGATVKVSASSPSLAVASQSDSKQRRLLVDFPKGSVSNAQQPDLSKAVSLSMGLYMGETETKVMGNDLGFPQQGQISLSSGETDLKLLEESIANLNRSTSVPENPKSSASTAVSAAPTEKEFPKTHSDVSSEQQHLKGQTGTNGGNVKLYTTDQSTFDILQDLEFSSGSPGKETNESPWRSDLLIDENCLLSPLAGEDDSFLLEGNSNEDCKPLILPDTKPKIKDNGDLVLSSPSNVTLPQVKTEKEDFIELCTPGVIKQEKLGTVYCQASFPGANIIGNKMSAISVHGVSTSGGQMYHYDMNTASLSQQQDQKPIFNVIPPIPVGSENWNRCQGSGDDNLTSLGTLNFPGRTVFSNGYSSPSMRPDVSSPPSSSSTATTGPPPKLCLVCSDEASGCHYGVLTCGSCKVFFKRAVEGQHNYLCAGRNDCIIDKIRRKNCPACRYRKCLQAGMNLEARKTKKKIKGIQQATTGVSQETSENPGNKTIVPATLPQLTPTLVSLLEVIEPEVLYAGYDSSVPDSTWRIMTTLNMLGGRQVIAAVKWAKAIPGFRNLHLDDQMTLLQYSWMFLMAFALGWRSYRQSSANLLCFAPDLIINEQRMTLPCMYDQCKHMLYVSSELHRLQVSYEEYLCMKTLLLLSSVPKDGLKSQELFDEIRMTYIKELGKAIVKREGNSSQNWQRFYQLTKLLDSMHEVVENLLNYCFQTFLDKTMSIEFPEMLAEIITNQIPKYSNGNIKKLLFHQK

NC[C@H]1O[C@H](O[C@H]2[C@H](O)[C@@H](O[C@H]3O[C@H](CO)[C@@H](O)[C@H](N)[C@H]3O)[C@H](N)C[C@@H]2N)[C@H](N)C[C@@H]1O [Tobramycin, tobramycin]
Tmax ([1]; epithelial lining fluid, inhaled or intranasal, ELF Tmax, […] IT): 40.2 ± 18 min
Tmax [1, 2]: 8.4 ± 6 min
Tmax ([1]; lung, inhaled or intranasal, Lung Tmax, lung tissue, […] IT): 49.8 ± 18 min
CL/F ([1]; plasma, inhaled or intranasal): 15.2 ± 8 mL/min/kg
Vd/F ([1]; plasma, inhaled or intranasal): 1.02 ± 0.4 L/kg
half-life ([1]; plasma, inhaled or intranasal): 48.6 ± 12 min
Tmax ([1]; plasma, inhaled or intranasal, Tmax, […] IT): 40.2 ± 18 min
half-life ([1]; plasma, iv): 15 ± 6 min
Cl/F_obs ([1]; plasma): 27.99 ± 1.8 mL/min/kg
Vz/F_obs ([1]; plasma): 0.60 ± 0.2 L/kg

CC(C)Oc1ccc(-c2ncc(CNc3ccnc(C(F)(F)F)c3)cn2)cc1Cl [Compound 24]
inhibition at 10 µM (5-HT transporter (h)): 49.8%
inhibition at 10 µM (5-HT1A (h)): 11.3%
inhibition at 10 µM (5-HT1B (h)): -6.7%
inhibition at 10 µM (5-HT2A (h)): -2.8%
inhibition at 10 µM (5-HT2B (h)): 62.2%
inhibition at 10 µM (5-HT3 (h)): 4.4%
BINDING (%) (A2A (h)): 2.2%
inhibition at 10 µM (AR (h)): 12.7%
inhibition at 10 µM (CB1 (h)): 16.3%
inhibition at 10 µM (CB2 (h)): 31%
inhibition at 10 µM (D1 (h)): 12.2%
inhibition at 10 µM (D2S (h)): -0.6%
inhibition at 10 µM (ETA (h)): -0.3%
inhibition at 10 µM (GR (h)): 16.2%
inhibition at 10 µM (H1 (h)): 8.2%
inhibition at 10 µM (H2 (h)): -30%
BINDING (%) (KV channel): 14.2%
inhibition at 10 µM (M1 (h)): -5.9%
inhibition at 10 µM (M2 (h)): 0%
inhibition at 10 µM (M3 (h)): -2%
inhibition at 10 µM (MAO-A): 24.9%
BINDING (%) (NMDA): 0.9%
inhibition at 10 µM (alpha1A (h)): 3.4%
inhibition at 10 µM (alpha2A (h)): 8.4%
inhibition at 10 µM (beta1 (h)): 7.1%
inhibition at 10 µM (beta2 (h)): 7.9%
inhibition at 10 µM (delta (DOP) (h)): 14.5%
inhibition at 10 µM (dopamine transporter (h)): 22.7%
inhibition at 10 µM (kappa (h) (KOP)): 23.6%
inhibition at 10 µM (mu (MOP) (h)): 8.2%
Tmax [1, 2]: 40.2 ± 54 min
CL/F ([1]; in vivo, inhaled or intranasal): 0.8 ± 0.1 mL/min/kg
Vd/F ([1]; in vivo, inhaled or intranasal): 0.06 L/kg
half-life ([1]; in vivo, inhaled or intranasal): 48.6 min
Tmax ([1]; in vivo, inhaled or intranasal, ELF Tmax): 30 min
Tmax ([1]; in vivo, inhaled or intranasal, Lung Tmax): 40.2 ± 18 min
Tmax ([1]; in vivo, inhaled or intranasal, Tmax): 40.2 ± 18 min
Tmax ([1]; lung tissue, iv, Lung Tmax): 4.8 min
half-life ([1]; plasma, iv): 63 ± 6 min
Cl/F_obs ([1]; plasma): 0.21 ± 0.0 mL/min/kg
Vz/F_obs ([1]; plasma): 0.02 ± 0.0 L/kg
